For orientation: IC50 means the concentration that inhibits the measured activity by half. In general, Papp A→B refers to the apparent permeability from the apical to the basolateral side of a cell layer. A lower Papp A→B goes with slow passage. In general, Papp B→A refers to the apparent permeability from the basolateral to the apical side of a cell layer.

For series [1], the target named is CutC from Proteus mirabilis (Proteus mirabilis, UniProt B4EYG1). The series can be described thus: Cell-based assay for TMA production from a native producer (P. mirabilis). The conditions noted are these: d9-TMA from 1 mM d9-choline, 5 h, 37° C.; value 10 given when no fit or % TMA remaining at 10 μM higher than 15%; read-out: Average IC50 Whole cell P. mirabilis. The gist of the method:
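Overnight anaerobic cultures of P. mirabilis or C. sporogenes, grown in BHI with 1 mM choline, were diluted and given 1 mM (trimethyl-d9)-choline plus compound at 10 μM final. After 5 h at 37° C., d9-TMA was quantified by LCMS.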

The nature of series [2]: Caco-2 permeability assay. In kind it is in vitro ADME. To be noted: human, Caco-2, pH 7.4. (Caco-2 cells form a polarised layer with tight junctions and transporters.)

Chain of CutC from Proteus mirabilis (B4EYG1 entry or part of it): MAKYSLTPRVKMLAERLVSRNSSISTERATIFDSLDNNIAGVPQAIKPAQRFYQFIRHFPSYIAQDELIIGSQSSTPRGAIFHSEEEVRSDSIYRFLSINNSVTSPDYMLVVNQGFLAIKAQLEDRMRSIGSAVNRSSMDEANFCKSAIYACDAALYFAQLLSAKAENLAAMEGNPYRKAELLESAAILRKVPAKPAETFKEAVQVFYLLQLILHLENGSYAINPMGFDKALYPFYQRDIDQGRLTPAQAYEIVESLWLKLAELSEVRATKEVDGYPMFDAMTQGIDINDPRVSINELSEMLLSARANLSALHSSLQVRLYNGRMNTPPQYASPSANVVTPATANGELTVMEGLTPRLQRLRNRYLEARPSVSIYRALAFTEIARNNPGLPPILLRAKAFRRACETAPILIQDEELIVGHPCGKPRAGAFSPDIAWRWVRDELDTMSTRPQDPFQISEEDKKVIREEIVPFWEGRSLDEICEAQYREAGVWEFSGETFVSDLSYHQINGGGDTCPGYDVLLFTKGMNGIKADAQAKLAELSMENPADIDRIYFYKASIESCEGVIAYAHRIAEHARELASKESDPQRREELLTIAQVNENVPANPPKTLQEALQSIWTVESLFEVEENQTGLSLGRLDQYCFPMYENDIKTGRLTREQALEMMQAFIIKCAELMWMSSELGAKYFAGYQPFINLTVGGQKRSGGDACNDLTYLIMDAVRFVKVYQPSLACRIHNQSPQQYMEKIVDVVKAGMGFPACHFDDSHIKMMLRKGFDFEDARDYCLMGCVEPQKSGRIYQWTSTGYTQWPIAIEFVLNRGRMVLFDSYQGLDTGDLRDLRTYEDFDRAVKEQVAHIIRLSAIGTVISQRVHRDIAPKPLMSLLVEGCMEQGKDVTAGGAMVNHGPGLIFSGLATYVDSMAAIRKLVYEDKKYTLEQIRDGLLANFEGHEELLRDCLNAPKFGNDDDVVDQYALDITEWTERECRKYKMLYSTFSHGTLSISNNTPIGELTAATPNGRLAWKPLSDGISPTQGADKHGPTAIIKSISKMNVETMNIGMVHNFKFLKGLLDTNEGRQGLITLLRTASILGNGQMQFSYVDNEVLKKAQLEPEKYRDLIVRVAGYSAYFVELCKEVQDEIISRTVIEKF
Chain of CutC from Proteus mirabilis (B4EYG0 entry or part of it, further chain): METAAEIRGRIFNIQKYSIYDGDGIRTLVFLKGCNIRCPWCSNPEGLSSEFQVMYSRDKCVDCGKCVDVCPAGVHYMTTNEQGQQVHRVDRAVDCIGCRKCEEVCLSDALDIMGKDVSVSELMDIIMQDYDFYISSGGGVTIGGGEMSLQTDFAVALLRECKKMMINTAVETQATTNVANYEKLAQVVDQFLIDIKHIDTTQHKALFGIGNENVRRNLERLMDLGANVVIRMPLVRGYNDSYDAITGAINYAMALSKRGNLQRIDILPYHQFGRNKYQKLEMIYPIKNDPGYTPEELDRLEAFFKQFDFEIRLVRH

As to `CC(=O)OC[C@H]1O[C@@H](OCC[N+](C)(C)C2CC2)[C@H](OC(C)=O)[C@@H](OC(C)=O)[C@@H]1OC(C)=O.[I-]` [Compound 80, N,N-dimethyl-N-(2-{[(3R,4S,5R,6R)-3,4,5-tris(acetyloxy)-6-[(acetyloxy)methyl]oxan-2-yl]oxy}ethyl)cyclopropanaminium Iodide], the IC50 in series [1] was ≥ 10 µM. In series [2], the Papp A→B at 2 h, 1 µM turned out to be 0.28 ×10⁻⁶ cm/s and the Papp B→A at 2 h, 1 µM was determined as 0.313 ×10⁻⁶ cm/s.

For the origin of these results see patent US20220041641A1, “QUATERNARY AMMONIUM SALTS AS INHIBITORS OF TRIMETHYLAMINE PRODUCTION” (Senda Biosciences, Inc., priority 2018, published 2022).
